# According to ChEMBL document CHEMBL4265938, “Donepezil-based multi-functional cholinesterase inhibitors for treatment of Alzheimer's disease” (Eur J Med Chem, 2018):
# Experiments:
# Acetylcholinesterase [1] = biological target: T1, Acetylcholinesterase (Electrophorus electricus, UniProt O42275); assay: Inhibition of electric eel AChE
# [2] = Effective permeability of the compound; format: ADME; details: not told; read-out: Peff
# [3] = biological target: T2, Amine oxidase [flavin-containing] B (Homo sapiens, UniProt P27338); assay: Inhibition of human MAOB
# T2 sequence (P27338 whole entry): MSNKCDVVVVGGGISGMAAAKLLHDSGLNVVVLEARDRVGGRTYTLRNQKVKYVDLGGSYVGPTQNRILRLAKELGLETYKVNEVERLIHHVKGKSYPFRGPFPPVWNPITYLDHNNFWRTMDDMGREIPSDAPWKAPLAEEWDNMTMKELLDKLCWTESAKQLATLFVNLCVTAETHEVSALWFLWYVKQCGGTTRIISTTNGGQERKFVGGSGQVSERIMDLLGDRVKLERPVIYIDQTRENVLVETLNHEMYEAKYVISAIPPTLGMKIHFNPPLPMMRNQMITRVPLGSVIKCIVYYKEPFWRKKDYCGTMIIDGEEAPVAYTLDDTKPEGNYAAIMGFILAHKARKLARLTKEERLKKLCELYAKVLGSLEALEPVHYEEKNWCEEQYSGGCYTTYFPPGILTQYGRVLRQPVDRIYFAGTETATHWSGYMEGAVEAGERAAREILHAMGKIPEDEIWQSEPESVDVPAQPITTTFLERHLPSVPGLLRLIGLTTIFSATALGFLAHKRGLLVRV
# [4] = biological target: T3, Amine oxidase [flavin-containing] A (Homo sapiens, UniProt P21397); assay: Inhibition of human MAOA
# T3 sequence (P21397 whole entry): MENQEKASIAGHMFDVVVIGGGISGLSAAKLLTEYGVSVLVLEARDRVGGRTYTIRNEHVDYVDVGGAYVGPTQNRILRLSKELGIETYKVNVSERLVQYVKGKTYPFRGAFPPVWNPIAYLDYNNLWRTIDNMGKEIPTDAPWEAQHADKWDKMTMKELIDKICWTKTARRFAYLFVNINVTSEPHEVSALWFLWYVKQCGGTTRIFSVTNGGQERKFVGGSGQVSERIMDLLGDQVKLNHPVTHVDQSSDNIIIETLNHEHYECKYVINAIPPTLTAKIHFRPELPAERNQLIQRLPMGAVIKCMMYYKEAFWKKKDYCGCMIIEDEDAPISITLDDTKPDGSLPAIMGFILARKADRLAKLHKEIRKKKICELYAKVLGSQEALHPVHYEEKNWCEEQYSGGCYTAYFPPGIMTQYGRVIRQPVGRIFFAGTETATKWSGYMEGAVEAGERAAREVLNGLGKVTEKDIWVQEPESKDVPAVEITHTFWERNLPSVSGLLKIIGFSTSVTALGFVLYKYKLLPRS
# Cholinesterase [5] = biological target: T4, Cholinesterase (Equus caballus, UniProt P81908); assay: Inhibition of equine serum BuChE
# T4 sequence (P81908 whole entry): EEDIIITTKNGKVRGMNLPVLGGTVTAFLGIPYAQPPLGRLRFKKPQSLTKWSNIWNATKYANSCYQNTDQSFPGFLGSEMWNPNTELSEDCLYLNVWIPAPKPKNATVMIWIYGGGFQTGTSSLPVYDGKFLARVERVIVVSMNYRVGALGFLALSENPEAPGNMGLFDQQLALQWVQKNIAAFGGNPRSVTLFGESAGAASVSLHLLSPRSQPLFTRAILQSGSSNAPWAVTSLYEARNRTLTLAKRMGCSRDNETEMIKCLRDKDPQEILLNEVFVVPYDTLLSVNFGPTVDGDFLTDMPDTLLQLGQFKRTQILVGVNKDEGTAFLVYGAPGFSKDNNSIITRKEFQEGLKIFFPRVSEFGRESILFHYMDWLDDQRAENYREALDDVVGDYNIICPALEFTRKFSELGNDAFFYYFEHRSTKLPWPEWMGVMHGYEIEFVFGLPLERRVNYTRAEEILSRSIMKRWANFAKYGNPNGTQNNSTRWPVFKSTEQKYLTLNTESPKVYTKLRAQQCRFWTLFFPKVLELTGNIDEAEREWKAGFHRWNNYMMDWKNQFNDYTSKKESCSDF
# Acetylcholinesterase [6] = biological target: T5, Acetylcholinesterase (Homo sapiens, UniProt P22303); assay: Inhibition of recombinant human AChE using acetylthiocholine iodide as substrate preincubated for 5 mins followed by substrate addition measured after 5 mins by Ellman's method
# T5 sequence (P22303 whole entry): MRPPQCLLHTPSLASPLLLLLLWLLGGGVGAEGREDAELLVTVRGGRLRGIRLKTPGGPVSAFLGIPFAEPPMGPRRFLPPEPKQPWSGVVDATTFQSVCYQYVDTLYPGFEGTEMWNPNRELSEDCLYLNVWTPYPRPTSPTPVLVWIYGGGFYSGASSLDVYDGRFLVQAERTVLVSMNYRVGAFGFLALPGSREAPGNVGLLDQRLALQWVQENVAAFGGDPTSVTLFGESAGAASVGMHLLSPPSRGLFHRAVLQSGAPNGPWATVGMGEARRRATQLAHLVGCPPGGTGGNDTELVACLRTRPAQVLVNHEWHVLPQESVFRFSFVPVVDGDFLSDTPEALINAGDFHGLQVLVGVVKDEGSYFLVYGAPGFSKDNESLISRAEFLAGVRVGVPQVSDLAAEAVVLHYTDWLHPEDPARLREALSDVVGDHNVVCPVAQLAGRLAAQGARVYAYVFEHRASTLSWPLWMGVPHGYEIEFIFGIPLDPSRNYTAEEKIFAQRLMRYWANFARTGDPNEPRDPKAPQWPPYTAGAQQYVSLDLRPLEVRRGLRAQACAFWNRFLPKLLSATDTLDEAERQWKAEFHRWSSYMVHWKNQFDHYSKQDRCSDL
# [7] = biological target: Amyloid-beta precursor protein (Homo sapiens) (UniProt P05067); assay: Inhibition of recombinant human HFIP-pretreated amyloid beta (1 to 42) self aggregation at 10 uM after 24 hrs by ThT-based fluorometric method relative to control
# Sequence of Amyloid-beta precursor protein (Homo sapiens) (P05067 whole entry): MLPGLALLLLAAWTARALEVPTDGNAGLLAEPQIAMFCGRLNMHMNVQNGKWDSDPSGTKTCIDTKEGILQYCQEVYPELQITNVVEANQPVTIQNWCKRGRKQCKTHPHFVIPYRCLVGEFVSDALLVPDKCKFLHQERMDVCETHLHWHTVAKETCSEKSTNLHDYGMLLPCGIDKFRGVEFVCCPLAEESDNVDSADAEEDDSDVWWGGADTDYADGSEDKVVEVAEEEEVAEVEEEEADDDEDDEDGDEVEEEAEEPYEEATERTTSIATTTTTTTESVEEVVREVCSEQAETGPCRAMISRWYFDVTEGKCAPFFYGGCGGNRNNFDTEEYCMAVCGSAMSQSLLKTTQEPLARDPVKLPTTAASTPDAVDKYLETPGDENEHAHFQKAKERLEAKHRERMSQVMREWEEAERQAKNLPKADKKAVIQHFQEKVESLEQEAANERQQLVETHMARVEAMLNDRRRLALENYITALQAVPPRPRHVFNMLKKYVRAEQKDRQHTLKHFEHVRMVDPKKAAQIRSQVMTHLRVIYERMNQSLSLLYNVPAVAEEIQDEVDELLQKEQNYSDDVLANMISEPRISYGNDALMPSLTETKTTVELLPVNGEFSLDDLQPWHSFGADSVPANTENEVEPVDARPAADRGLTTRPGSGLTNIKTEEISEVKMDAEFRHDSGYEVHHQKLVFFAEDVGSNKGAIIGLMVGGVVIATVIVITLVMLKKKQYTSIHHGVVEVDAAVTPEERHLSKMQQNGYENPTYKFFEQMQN
# Acetylcholinesterase [8] = biological target: T1, Acetylcholinesterase; assay: Inhibition of electric eel AChE using acetylthiocholine iodide as substrate preincubated for 5 mins followed by substrate addition measured after 5 mins by Ellman's method
# Beta-secretase 1 = Beta-secretase 1 (Homo sapiens, UniProt P56817); assay: Inhibition of BACE-1 (unknown origin)
# Sequence of Beta-secretase 1 (P56817 whole entry): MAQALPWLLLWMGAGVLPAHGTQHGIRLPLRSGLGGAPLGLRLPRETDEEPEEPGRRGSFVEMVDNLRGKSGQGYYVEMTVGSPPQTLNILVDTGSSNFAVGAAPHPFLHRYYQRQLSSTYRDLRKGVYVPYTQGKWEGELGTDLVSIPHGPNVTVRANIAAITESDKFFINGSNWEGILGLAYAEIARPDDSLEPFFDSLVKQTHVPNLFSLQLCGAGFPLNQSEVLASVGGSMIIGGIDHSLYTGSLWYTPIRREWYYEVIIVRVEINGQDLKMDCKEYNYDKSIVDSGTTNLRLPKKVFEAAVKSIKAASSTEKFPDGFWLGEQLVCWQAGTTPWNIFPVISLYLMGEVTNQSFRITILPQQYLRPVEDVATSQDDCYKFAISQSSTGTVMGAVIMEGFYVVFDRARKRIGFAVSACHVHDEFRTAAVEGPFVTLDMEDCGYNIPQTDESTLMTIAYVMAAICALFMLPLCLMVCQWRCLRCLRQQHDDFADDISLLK
# [9] = Selectivity ratio of IC50 for electric eel AChE to IC50 for equine serum BuChE
# Acetylcholinesterase [10] = biological target: T1, Acetylcholinesterase; assay: Mixed type inhibition of electric eel AChE
# Cholinesterase [11] = biological target: T4, Cholinesterase; assay: Mixed type inhibition of equine serum BuChE
# [12] = Antioxidant activity assessed as trolox equivalent of AAPH-induced radical scavenging activity at 70 nM preincubated for 15 mins followed by AAPH addition measured every min for 80 mins by ORAC-FL assay; format: functional
# Acetylcholinesterase [13] = biological target: T5, Acetylcholinesterase; assay: Inhibition of recombinant human AChE using acetylthiocholine iodide as substrate preincubated for 20 mins followed by substrate addition measured after 5 mins by Ellman's method
# Cholinesterase [14] = biological target: T4, Cholinesterase; assay: Inhibition of equine serum BuChE using butyrylthiocholine iodide as substrate preincubated for 20 mins followed by substrate addition measured after 30 mins by Ellman's method
# Acetylcholinesterase [15] = biological target: T1, Acetylcholinesterase; assay: Inhibition of electric eel AChE using acetylthiocholine iodide as substrate preincubated for 20 mins followed by substrate addition measured after 5 mins by Ellman's method
# [16] = biological target: T2, Amine oxidase [flavin-containing] B; assay: Inhibition of recombinant human MAOB using tyramine hydrochloride as substrate preincubated for 30 mins followed by substrate addition measured for 1 hr by fluorometric method
# T1 sequence (O42275 whole entry): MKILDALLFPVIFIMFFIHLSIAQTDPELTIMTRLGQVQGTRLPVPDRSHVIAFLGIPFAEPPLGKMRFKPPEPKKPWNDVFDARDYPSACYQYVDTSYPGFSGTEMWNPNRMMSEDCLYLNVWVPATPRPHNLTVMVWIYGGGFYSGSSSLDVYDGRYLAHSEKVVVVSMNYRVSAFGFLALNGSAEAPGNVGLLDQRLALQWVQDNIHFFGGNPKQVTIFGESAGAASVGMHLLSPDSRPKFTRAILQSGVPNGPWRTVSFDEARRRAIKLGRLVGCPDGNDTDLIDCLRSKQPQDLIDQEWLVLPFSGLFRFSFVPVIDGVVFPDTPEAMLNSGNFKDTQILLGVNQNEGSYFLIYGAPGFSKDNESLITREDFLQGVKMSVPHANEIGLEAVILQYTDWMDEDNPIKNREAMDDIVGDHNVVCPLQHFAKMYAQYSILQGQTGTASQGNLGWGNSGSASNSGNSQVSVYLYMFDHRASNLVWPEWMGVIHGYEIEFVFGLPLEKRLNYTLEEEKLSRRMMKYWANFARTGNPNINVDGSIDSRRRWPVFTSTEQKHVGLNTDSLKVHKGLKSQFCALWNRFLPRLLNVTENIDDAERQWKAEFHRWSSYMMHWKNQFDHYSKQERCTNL
compound,measurement,setting,value
O=C(NCCC1CCN(Cc2ccccc2)CC1)c1ccc(Cl)cn1,IC50,Acetylcholinesterase [1],220 nM
same,Papp,[2],10.4 ×10⁻⁶ cm/s
same,IC50,[3],3140 nM
same,IC50,[4],13400 nM
same,IC50,Cholinesterase [5],1230 nM
CN(CCCCCN1C(=O)c2ccccc2S1(=O)=O)Cc1ccccc1,IC50,Acetylcholinesterase [6],33 nM
same,inhibition,[7],22.2%
same,IC50,Acetylcholinesterase [8],36 nM
COc1cc2c(cc1OC)C(=O)/C(=C/C1CCN(Cc3ccccc3)CC1)C2,IC50,Beta-secretase 1,697 nM
Cn1c(=O)n(C)c2cc(S(=O)(=O)NCC3CCN(Cc4ccc(F)cc4)CC3)ccc21,Ratio IC50,[9],66.1
same,IC50,Acetylcholinesterase [10],2050 nM
same,IC50,Cholinesterase [11],31 nM
COc1ccc2c(c1)C/C(=C\C1CCN(Cc3ccccc3)CC1)C2=O,IC50,Beta-secretase 1,333 nM
COc1cc(/C=C/C(=O)N(CCCC2CCN(Cc3ccccc3)CC2)CC(=O)Nc2c(C)cccc2Cl)ccc1O,IC50,Acetylcholinesterase [1],29.3 nM
same,Activity,[12],5.32 equiv
same,IC50,Cholinesterase [5],52.3 nM
C#CCNc1nc(NCCCCC2CCN(Cc3ccccc3)CC2)c(C#N)cc1C#N,IC50,Acetylcholinesterase [13],1 nM
C#CCNc1nc(NCCCC2CCN(Cc3ccccc3)CC2)c(C#N)cc1C#N,IC50,Cholinesterase [14],600 nM
same,IC50,Acetylcholinesterase [15],1.1 nM
same,IC50,[16],3950 nM
